Values of other authors, collected in PMC9406037, “Design, Synthesis and Activity of New N^1-Alkyl Tryptophan Functionalized Dendrimeric Peptides against Glioblastoma” (Biomolecules, 2022).

Assays:
[1] = alpha-tocopherol at ca 4.4 µM
Source text: Taking into account structural differences between these two groups of dendrimers, the possible primary mechanism in the DPPH conditions involves hydrogen and electron transfer from the above electron-rich center and to less extent from numerous indole rings. For the same reasons, the highest reductive capabilities (FRAP) were expressed by compound 24. All compounds were very effective in s ...

[2] = tested on: U87MG cells cultured in spheroids; conditions: 20 µM alone or in combination with iododeoxyuridine (IUdR 1 µM) for 67 h; clonogenicity observed 10 day later
Source text: Another important issue which has to be taken into consideration is the time of treatment with potential drugs and mode of action. […] […] However, combined treatment o ...

Row | Molecule | radical scavenging potency relative to Trolox, ABTS model [1] | radical scavenging potency relative to Trolox, DPPH model [1] | effect on cell viability or clonogenicity [2]
1 | Cc1c(C)c2c(c(C)c1O)CC[C@@](C)(CCC[C@H](C)CCC[C@H](C)CCCC(C)C)O2 [alpha-tocopherol] | ~5.5 | slightly lower | 
2 | trans-3,4,5′-trihydroxystilbene [Resveratrol] | much more potent than Trolox | much more potent than Trolox | without any effect on cell viability or clonogenicity
